Laboratory results reported in patent US20220257523A1, “COMPOSITE DRUG PARTICLES AND USES THEREOF” (The Regents of the University of Michigan, priority 2019, published 2022).

Columns and labels:
[1] = tested on: inguinal fat pads of genetically obese mice; assay: In vivo lipolysis after subcutaneous injection into inguinal fat pad; design: species or system mice (B6.Cg-Lep^ob/J)
Description: Animal studies were conducted following the National Institute of Health guidelines for the care and use of laboratory animals and approved by the Institutional Animal Care and Use Committee (IACUC) of the University of Michigan. 8-10 week old female genetically obese (B6.Cg-Lep^ob/J) mice purchased from The Jackson Laboratory were used. The in vivo trials were replicated for 3 animals. All the animals had the same age and the average weight of the animals in each group were matched prior to the initiation of the study.
In vivo lipolysis assays were performed via subcutaneous injection of rhodamine-loaded deoxycholate microparticles into the inguinal fat pads of genetically obese mice alongside the salt solution and vehicle control. Genetically obese mice were anesthetized using isoflurane, shaved, and subcutaneously injected with 100 μL of the suspension of rhodamine-loaded deoxycholate particles or the solution of deoxycholate salt in saline (25 mg/mL) or vehicle control into their right inguinal fat pad. 100 μL of pure saline was injected into the left fat pad of the animals as the control. The weight and appearance of the animals was tracked over the course of two weeks. One group of the animals received a second dosage of particles on Day 7. After 14 days, the animals were euthanized, the right and left fat pad of the animals were removed, weighed, and fixed in 10% formalin solution overnight. Histology slides of the samples were prepared via paraffin embedding and standard hematoxylin and eosin staining. The histology slides were analyzed by blindfolded physicians and the digital scans were analyzed using QuPath software.

[2] = tested on: primary subcutaneous human adipocytes; assay: Adipocyte lysis assay (MTS viability); type: cell-based
Description: The capability of the particle formulation to kill fat cells was tested by incubating them with primary subcutaneous human adipocytes. The primary subcutaneous human adipocytes cultured in 96-well plates were purchased from Zen-Bio (Research Triangle, NC). Upon arrival, 150 μl of the media was removed from each well, and the cells were incubated at 37° C. and 5% CO2. For the lysis assays, 150 μl of the salt solution or particle suspension of the known concentration in FBS free RPMI-medium were incubated for a known time-point. Afterward, the treatment solution was aspirated, the cells were washed with warm PBS, and 150 μl of a 1:25 dilution in 1×PBS of MTS assay cell titer (purchased from Promega Corporation, Madison, Wis.) was added to each well. Plates were incubated at 37° C. and 5% CO2 for 3 hr until the appearance of the orange color in the untreated control wells and the absorbance was measured at 490 nm. The cell viability was quantified via subtracting the background cell titer absorbance from the absorbance of the desired point and dividing it by the average signal of the untreated cells after subtracting the background.

[3] = tested on: Human umbilical vein endothelial cells (HUVECs); assay: HUVEC cell lysis assay (MTS viability)
Description: After the desired time-point, the treatment solution/suspension was removed from the wells, the cells were washed with warm 1X phosphate buffered saline (PBS) and incubated with 1 ml of the 1:25 dilution of MTS assay cell titer (Promega, WI) in 1×PBS at 37° C. and 5% CO2 for 2 hr until the appearance of the orange color in the untreated control wells. The absorbance was then measured at 490 nm, and each condition was repeated in triplicate. The percentage of the cell viability was quantified via subtracting the background cell titer absorbance from the absorbance of the desired point and dividing it by the average signal of the untreated cells after subtracting the background.

Row | Structure (SMILES) | time at which an ulcer developed in all of the animals ([1]; 100 μL of 25 mg/mL in saline s.c. into right inguinal fat pad) | skin bruising and inflammation at the injection site ([1]; 100 μL of 25 mg/mL in saline s.c. into right inguinal fat pad, particles rhodamine-loaded, one or two dosages) | local fat loss in the injected fat pad ([1]; at euthanasia 14 days post-injection, right versus left fat pad) | weight of the animals during the lipolytic treatment ([1]; over two weeks) | histology (H&E) of the right fat pad, evidence of fat lysis ([1]; s.c. injection into right inguinal fat pad) | concentration enough to kill the fat cells ([2]; RPMI media, within 1 hr) | cells killed ([3]; 0.01% solution in media, 1 hr) [%] | cells still alive ([3]; 0.1% salt in 5% BSA, 3 hr) | cell death ([3]; 0.1% salt in media, 3 hr) | cells killed ([3]; 0.2% salt solution in media, 1 hr) | cells lysed ([3]; concentrations higher than 0.2%, 1 hr) | cells killed ([2]; 1% solution in RPMI media)
1 | C[C@H](CCC(=O)[O-])[C@H]1CC[C@H]2[C@@H]3CC[C@@H]4C[C@H](O)CC[C@]4(C)[C@H]3C[C@H](O)[C@]12C.[Na+] [sodium deoxycholate] | 7-9 days post-injection | severe bruising and inflammation | visual evidence of local fat loss | No significant change | Crown-like structures and significant leukocyte infiltration | higher than 0.05% | ~40 | around 25% | nearly all the cells | approximately 95% | all the cells | 
2 | C[C@H](CCC(=O)[O-])[C@H]1CC[C@H]2[C@@H]3[C@H](O)C[C@@H]4C[C@H](O)CC[C@]4(C)[C@H]3C[C@H](O)[C@]12C.[Na+] [sodium cholate] |  |  |  |  |  |  |  |  |  |  |  | all the cells
